Assay results published in patent US11360080B2, “AhR-ROR-γt complex as a biomarker and therapeutic target for autoimmune disease and IL-17A-associated disease” (NATIONAL HEALTH RESEARCH INSTITUTES, priority 2018, dated 2022).
Where a name gives a salt, the structure may show the parent alone.

Key:
[1] = system: GLK-induced NF-κB-luciferase activity; test: NF-κB-driven luciferase reporter assay in CHO-GLK-Luc cells; format: cell-based; conditions: stable GLK-transfected CHO-K1 cells
Procedure: (A) Luciferase activity of NF-κB-driven reporter assays in stable GLK-transfected CHO-K1 cells that were treated with or without the GLK inhibitor C1 (verteporfin) under the indicated concentration. The fold changes are presented relative to the value of vector control. (B) Recombinant proteins of GLK kinase domain plus recombinant proteins of GST-tagged kinase-dead PKCθ (K409W) were subjected to in vitro kinase assays in the presence or absence of the GLK inhibitor C1 (verteporfin). Means±SD of are shown. *, P value<0.05; **, P value<0.01 (two-tailed Student's t-test). (C) The AhR-RORγt complex was inhibited by the GLK inhibitor. Confocal microscopy of proximity ligation assays (PLA) for the interaction between AhR and either RORγt or phospho-RORγt (S489) in peripheral blood T cells treated with C1 (verteporfin) (5 μM) for 30 min. The T cells were freshly isolated from 4 SLE patients and 1 RA patients. C1 denotes verteporfin; C2 denotes alexidine dihydrochloride. (D) Quantification of the PLA signals of (C). (E) FRET assays of HEK293T cells co-transfected with CFP-AhR, YFP-RORγt, and IKKβ plasmids.
Cell-based high-throughput screening was conducted against a representative library of 100,000 molecules at ˜10 μM. CHO-GLK-Luc cells expressing GLK and NF-κB-luciferase reporter were used. […] This high-throughput screening campaign was successful with a determined Z′ factor of 0.57˜0.60. […]

GLK−IQGAP1 interaction = molecular target: T1, GLK−IQGAP1 interaction (Homo sapiens, UniProt Q8IVH8); test: FRET assay of HEK293T cells with CFP- and YFP-fused GLK and IQGAP1; format: cell-based
T1 construct: expressed in transfected cells; host or cells: HEK293T
T1 sequence (Q8IVH8 whole entry, the tested form may be a part): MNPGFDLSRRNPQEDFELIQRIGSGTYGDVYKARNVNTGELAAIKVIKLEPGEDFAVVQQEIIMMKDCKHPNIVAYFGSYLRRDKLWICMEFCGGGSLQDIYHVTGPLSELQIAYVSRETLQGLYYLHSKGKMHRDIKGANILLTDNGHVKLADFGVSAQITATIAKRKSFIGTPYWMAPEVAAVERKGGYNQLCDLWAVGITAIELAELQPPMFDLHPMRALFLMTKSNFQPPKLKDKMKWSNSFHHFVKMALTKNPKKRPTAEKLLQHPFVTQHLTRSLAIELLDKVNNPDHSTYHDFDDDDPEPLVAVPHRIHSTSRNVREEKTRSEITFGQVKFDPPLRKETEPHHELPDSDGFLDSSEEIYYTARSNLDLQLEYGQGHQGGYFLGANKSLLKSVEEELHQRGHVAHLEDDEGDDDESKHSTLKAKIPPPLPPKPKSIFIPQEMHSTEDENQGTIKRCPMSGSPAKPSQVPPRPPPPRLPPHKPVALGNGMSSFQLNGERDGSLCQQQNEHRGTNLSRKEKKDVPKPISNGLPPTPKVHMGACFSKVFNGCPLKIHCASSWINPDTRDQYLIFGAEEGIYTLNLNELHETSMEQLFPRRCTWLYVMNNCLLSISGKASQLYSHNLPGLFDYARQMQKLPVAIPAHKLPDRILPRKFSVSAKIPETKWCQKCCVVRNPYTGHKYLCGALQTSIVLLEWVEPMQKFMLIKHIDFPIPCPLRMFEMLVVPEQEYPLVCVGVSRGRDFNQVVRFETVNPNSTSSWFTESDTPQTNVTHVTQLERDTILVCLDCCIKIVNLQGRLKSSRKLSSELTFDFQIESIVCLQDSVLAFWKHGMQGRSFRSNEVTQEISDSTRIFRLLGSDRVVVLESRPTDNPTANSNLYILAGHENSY
Procedure: (A) Silver-stained gel of anti-Flag immunoprecipitates from HEK293T cells transfected with empty vector or Flag-tagged GLK in the presence or absence of the tyrosine phosphatase inhibitor pervanadate (25 μM). Arrows indicate the positions of GLK or GLK-interacting proteins. (B) Four pervanadate-induced tyrosine phosphorylation residues of GLK proteins were listed. (C and D) Co-immunoprecipitation of anti-Flag (C) or anti-Myc (D) immunocomplexes from lysates of HEK293T cells transfected with Flag-tagged GLK, Myc-tagged IQGAP1, or both plasmids. The whole-cell lysate immunoblots before immunoprecipitation (Pre-IP) are shown at the bottom of each panel. β-Tubulin was used as the loading control. (E) Co-immunoprecipitation of anti-Flag immunocomplexes from lysates of HEK293T cells transfected with either Flag-tagged GLK or Flag-tagged GLK mutant (Y366F, Y379F, Y574F, or Y735F). […]
FRET signal in live cells was detected by EnVision 2104 Multilabel Plate Reader (Perkin Elmer). The reaction was excited by light passing through a 430-nm filter (with 8 nm bandwidth), and the intensity of emitted fluorescence passing through a 530-nm filter (with 8 nm bandwidth) was recorded. If the protein-protein pair is in close proximity (1-10 nm), a 530-nm signal will be detected. […]

FRET signals of GLK−IQGAP1 interaction (GLK−IQGAP1 interaction)	Structure (SMILES)	GLK signaling in cell lines (luciferase reporter) [1]
inhibited	C=Cc1c(C)c2cc3nc(cc4[nH]c(cc5nc(cc1[nH]2)C(C)=C5CCC(=O)O)c(CCC(=O)OC)c4C)[C@@]1(C)C3=CC=C(C(=O)OC)[C@H]1C(=O)OC [C1, verteporfin]	efficiently inhibited
inhibited	CCCCC(CC)CNC(=N)NC(=N)NCCCCCCNC(=N)NC(=N)NCC(CC)CCCC (stereo not shown) [C2, alexidine dihydrochloride]	efficiently inhibited
